According to US11352340B2, “Pyridine and pyridimine compounds as PI3K-gamma inhibitors” (Incyte Corporation, priority 2016, dated 2022):
Where a name gives a salt, the structure may show the parent alone.

Experiments:
[1] = tested on: Phosphorylated Ribosomal Protein S6 (RPS6) in THP-1 cells; assay: THP-1 RPS6 ELISA Assay; type: cell-based, Human; conditions: Homo sapiens, MCP-1 stimulated, phospho-RPS6 ELISA, read-out: THP p-RPS6 ELISA IC50
Procedure: Example A. THP-1 RPS6 ELISA Assay
To measure the Phosphorylated Ribosomal Protein S6 (RPS6) in cell lysates, THP-1 cells (Human Acute Monocytic Leukemia) are purchased from ATCC (Manassas, Va.) and maintained in RPMI with 10% FBS (Gibco/Life Technologies, Carlsbad, Calif.). For the assay, THP-1 cells are serum starved overnight in RPMI, then plated in RPMI (2×10^5 cells/well in 90 μL) into 96-well flat-bottom tissue culture treated plates (Corning, Corning, N.Y.), in the presence or absence of a concentration range of test compounds. Covered plates are incubated for 2 hours at 37° C., 5% CO2 then treated with or without 10 nM MCP-1 (MYBioSource, San Diego, Calif.) for 15 minutes at 37° C., 5% CO2. Plates are centrifuged at 1600 RPM and supernatants are removed. Cells are lysed in Lysis Buffer (Cell Signaling, Danvers, Mass.) with Protease Inhibitor (Calbiochem/EMD, Germany), PMSF (Sigma, St Louis Mo.), HALTS (Thermo Fisher, Rockford, Ill.) for 30 min on wet ice. Cell lysates are frozen at −80° C. before testing. The lysates are tested in the Human/Mouse/Rat Phospho-RPS6 ELISA (R&D Systems, Inc. Minn, Minn.). The plate is measured using a microplate reader (SpectraMax M5—Molecular Devices, LLC Sunnyvale, Calif.) set to 450 nm with a wavelength correction of 540. IC50 determination is performed by fitting the curve of inhibitor percent inhibition versus the log of the inhibitor concentration using the GraphPad Prism 5.0 software.

[2] = target: PI3Kγ (p110γ) Recombinant Human Protein (Homo sapiens (Human), UniProt P48736); assay: PI3K-γ Scintillation Proximity Assay; type: biochemical; conditions: read-out: PI3K-gamma SPA IC50
How it was run: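 Recombinant human p110γ (13 nM) with 20 μM PIP2 and 2 μM ATP plus 0.5 μCi [γ-33P]ATP in 20 mM MOPS pH 6.7, 10 mM MgCl2, 5 mM DTT, 0.03% CHAPS, 2% DMSO, 120 min at room temperature. Product captured on WGA SPA beads and counted; IC50 fitted from % of solvent control versus log concentration.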

[3] = target: PI3Kδ (p110δ/p85α) Recombinant Human Protein (Homo sapiens (Human), UniProt O00329); assay: PI3Kδ Scintillation Proximity Assay; type: biochemical; conditions: read-out: PI3K-delta SPA IC50
How it was run: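 Kinase reaction run at room temperature in 20 mM MOPS pH 6.7, 10 mM MgCl2, 5 mM DTT, 0.03% CHAPS with 20 μM PIP2, 2 μM ATP plus [γ-33P]ATP, 3.4 nM enzyme, 2% DMSO; 120 min. Quenched with WGA SPA beads/EDTA, counted by scintillation; IC50 from % solvent-control activity vs log concentration.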

Sequence of PI3Kδ (p110δ/p85α) Recombinant Human Protein (O00329 whole entry): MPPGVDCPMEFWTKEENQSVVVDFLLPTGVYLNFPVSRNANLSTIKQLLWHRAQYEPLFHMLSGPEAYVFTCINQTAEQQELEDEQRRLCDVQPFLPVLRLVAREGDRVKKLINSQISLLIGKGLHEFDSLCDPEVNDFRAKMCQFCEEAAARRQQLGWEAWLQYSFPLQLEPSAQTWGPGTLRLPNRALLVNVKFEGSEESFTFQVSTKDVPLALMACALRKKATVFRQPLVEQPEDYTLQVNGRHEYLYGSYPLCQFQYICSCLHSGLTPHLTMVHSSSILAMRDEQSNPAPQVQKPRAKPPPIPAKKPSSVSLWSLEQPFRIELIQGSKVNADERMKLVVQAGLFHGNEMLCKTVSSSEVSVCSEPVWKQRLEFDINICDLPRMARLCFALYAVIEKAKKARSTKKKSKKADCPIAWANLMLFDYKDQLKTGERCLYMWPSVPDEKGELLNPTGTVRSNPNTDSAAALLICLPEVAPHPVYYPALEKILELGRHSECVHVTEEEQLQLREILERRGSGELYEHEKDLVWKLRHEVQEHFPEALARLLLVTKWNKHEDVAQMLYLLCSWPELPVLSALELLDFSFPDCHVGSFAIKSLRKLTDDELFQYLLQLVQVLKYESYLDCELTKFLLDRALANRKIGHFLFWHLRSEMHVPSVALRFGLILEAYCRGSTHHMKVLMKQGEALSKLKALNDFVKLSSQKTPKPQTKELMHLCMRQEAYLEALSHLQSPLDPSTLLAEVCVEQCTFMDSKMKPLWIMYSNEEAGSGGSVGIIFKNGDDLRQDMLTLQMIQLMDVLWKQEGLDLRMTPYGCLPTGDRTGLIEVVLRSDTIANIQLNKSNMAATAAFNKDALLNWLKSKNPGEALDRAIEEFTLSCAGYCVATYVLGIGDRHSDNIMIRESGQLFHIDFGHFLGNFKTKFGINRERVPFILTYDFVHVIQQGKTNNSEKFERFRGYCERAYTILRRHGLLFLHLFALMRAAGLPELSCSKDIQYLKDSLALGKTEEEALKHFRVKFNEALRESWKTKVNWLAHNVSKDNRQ
Sequence of PI3Kδ (p110δ/p85α) Recombinant Human Protein (P27986 whole entry partner): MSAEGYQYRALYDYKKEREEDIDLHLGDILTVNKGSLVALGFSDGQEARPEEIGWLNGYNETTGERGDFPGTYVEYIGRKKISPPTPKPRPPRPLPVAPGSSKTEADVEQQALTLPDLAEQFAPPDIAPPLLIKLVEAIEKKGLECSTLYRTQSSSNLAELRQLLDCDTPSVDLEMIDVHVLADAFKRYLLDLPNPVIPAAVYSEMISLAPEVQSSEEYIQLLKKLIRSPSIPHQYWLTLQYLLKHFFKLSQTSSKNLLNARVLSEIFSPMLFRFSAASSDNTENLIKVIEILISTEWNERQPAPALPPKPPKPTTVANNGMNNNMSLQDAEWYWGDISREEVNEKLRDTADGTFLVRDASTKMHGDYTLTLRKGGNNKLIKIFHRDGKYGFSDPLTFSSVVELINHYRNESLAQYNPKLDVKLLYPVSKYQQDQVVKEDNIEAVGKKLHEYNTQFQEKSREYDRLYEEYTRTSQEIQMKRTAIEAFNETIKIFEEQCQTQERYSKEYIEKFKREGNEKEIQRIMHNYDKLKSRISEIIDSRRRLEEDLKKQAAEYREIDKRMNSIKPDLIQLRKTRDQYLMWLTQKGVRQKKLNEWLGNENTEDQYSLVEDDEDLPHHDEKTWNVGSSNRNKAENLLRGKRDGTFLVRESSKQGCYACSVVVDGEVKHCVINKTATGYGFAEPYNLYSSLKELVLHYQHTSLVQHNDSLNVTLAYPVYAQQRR
Sequence of PI3Kγ (p110γ) Recombinant Human Protein (P48736 whole entry): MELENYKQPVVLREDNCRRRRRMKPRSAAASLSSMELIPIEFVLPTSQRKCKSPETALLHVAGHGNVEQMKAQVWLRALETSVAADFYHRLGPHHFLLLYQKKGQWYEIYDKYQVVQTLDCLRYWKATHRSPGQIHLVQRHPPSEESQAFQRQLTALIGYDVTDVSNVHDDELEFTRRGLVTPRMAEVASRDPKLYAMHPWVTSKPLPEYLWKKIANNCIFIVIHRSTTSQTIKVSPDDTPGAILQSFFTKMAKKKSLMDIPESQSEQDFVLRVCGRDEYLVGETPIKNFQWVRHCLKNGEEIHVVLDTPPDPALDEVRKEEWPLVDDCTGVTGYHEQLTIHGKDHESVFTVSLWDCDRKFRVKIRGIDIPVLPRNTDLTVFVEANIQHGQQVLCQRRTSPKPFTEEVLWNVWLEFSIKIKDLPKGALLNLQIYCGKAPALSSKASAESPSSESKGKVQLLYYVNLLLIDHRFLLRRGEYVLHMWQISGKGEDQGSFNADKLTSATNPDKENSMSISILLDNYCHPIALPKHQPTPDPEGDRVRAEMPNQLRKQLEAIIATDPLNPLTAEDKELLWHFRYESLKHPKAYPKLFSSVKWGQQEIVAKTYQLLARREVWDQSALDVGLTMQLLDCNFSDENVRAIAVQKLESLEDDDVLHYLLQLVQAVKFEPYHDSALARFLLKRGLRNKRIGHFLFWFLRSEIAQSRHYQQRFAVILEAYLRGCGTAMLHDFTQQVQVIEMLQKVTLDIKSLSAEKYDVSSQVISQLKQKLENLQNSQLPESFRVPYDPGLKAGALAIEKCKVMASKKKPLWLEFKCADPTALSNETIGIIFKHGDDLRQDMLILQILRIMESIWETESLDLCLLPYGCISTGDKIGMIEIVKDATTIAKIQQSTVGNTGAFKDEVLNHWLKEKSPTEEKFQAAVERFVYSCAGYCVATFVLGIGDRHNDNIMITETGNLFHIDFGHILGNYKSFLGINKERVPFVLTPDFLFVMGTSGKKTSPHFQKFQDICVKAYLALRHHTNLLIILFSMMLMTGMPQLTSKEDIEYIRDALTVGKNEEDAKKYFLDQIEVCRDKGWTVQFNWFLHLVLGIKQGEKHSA

| IC50 [1] [µM] | IC50 [2] [nM] | IC50 [3] [nM] | SMILES |
| --- | --- | --- | --- |
| > 5 | ≤ 100 | ≤ 100 | O=S(=O)(C1CCCC1)n1cc(-c2ccnc(-c3ncc(-c4ccccc4)[nH]3)c2)cn1 [Example 54, 4-(1-(Cyclopentylsulfonyl)-1H-pyrazol-4-yl)-2-(5-phenyl-1H-imidazol-2-yl)pyridine trifluoroacetate salt] |
| ≤ 0.3 | ≤ 100 | ≤ 100 | N#CCn1cc(-c2ccnc(-c3ncc(-c4ccccc4)[nH]3)c2)cn1 [Example 56, 2-(4-(2-(5-Phenyl-1H-imidazol-2-yl)pyridin-4-yl)-1H-pyrazol-1-yl)acetonitrile trifluoroacetate salt] |
| > 5 | ≤ 100 | > 500 | CCNc1ncc(-c2cc(-c3cncc(OC)c3)ccn2)[nH]1 [Example 62, N-Ethyl-5-(5-methoxy-3,4′-bipyridin-2′-yl)-1H-imidazol-2-amine Trifluoroacetate Salt] |
| > 5 | ≤ 500 | > 500 | CCCCCNc1ncc(-c2cc(-c3cncc(OC)c3)ccn2)[nH]1 [Example 63, 5-(5-Methoxy-3,4′-bipyridin-2′-yl)-N-pentyl-1H-imidazol-2-amine trifluoroacetate salt] |
| > 5 | ≤ 500 | > 500 | COc1cncc(-c2ccnc(-c3cnc(NCC4CCC4)[nH]3)c2)c1 [Example 65, N-(Cyclobutylmethyl)-5-(5-methoxy-3,4′-bipyridin-2′-yl)-1H-imidazol-2-amine trifluoroacetate salt] |
| > 5 | ≤ 500 | > 500 | CCCCNc1nnc(-c2cc(-c3cncc(OC)c3)ccn2)[nH]1 [Example 66, N-Butyl-5-(5-methoxy-3,4′-bipyridin-2′-yl)-4H-1,2,4-triazol-3-amine Trifluoroacetate Salt] |
| > 5 | ≤ 500 | ≤ 500 | COc1cncc(-c2ccnc(-c3nnc(NC(C)C)[nH]3)c2)c1 [Example 67, N-Isopropyl-5-(5-methoxy-3,4′-bipyridin-2′-yl)-4H-1,2,4-triazol-3-amine trifluoroacetate salt] |
| > 5 | ≤ 500 | > 500 | CNc1nnc(-c2cc(-c3cncc(OC)c3)ccn2)[nH]1 [Example 68, 5-(5-Methoxy-3,4′-bipyridin-2′-yl)-N-methyl-4H-1,2,4-triazol-3-amine trifluoroacetate salt] |
| > 5 | ≤ 500 | ≤ 500 | COc1cncc(-c2ccnc(-c3nnc(Nc4ccccc4)[nH]3)c2)c1 [Example 70, 5-(5-Methoxy-3,4′-bipyridin-2′-yl)-N-phenyl-4H-1,2,4-triazol-3-amine trifluoroacetate salt] |
| > 5 | ≤ 500 | ≤ 500 | COc1cncc(-c2ccnc(-c3nnc(-c4ccccc4)[nH]3)c2)c1 [Example 71, 5-Methoxy-2′-(5-phenyl-4H-1,2,4-triazol-3-yl)-3,4′-bipyridine] |
| > 5 | ≤ 50 | ≤ 50 | COc1cncc(-c2ccnc(-c3cnc(-c4ccccc4)[nH]3)c2)c1 [Example 74, 5-Methoxy-2′-(2-phenyl-1H-imidazol-5-yl)-3,4′-bipyridine] |
| 0.3 to 1 | ≤ 50 | ≤ 100 | COc1cncc(-c2ccnc(-c3nc(C)c(C)[nH]3)c2)c1 [Example 76, 2′-(4,5-Dimethyl-1H-imidazol-2-yl)-5-methoxy-3,4′-bipyridine] |
| 0.3 to 1 | ≤ 50 | ≤ 500 | COc1cncc(-c2ccnc(-c3ncc(C)[nH]3)c2)c1 [Example 77, 5-Methoxy-2′-(5-methyl-1H-imidazol-2-yl)-3,4′-bipyridine] |
| > 5 | ≤ 50 | ≤ 500 | COc1cncc(-c2ccnc(-c3ncc(C(F)(F)F)[nH]3)c2)c1 [Example 79, 5-Methoxy-2′-(5-(trifluoromethyl)-1H-imidazol-2-yl)-3,4′-bipyridine trifluoroacetate salt] |
